Some results are limits rather than exact numbers.

Experiment [1] concerns the target TIE-2 (Homo sapiens, UniProt Q02763). As to the kind of experiment: Inhibition of TIE-2 (flashplate kinase assay, poly(Glu, Tyr) phosphorylation, 33P-ATP). In kind it is biochemical. The procedure: The TIE-2 tests can be carried out, for example, analogously to the methods indicated in WO 02/44156.
The assay determines the inhibiting activity of the substances to be tested in the phosphorylation of the substrate poly(Glu, Tyr) by Tie-2 kinase in the presence of radioactive ^33P-ATP. The phosphorylated substrate binds to the surface of a “flashplate” microtitre plate during the incubation time. After removal of the reaction mixture, the microtitre plate is washed a number of times and the radioactivity on its surface is subsequently measured. An inhibiting effect of the substances to be measured results in lower radioactivity compared with an undisturbed enzymatic reaction.

The subject of experiment [2] is RAF. As to the kind of experiment: Inhibition of RAF. In kind it is biochemical.

Chain of TIE-2 (Q02763 23-1124, species assumed): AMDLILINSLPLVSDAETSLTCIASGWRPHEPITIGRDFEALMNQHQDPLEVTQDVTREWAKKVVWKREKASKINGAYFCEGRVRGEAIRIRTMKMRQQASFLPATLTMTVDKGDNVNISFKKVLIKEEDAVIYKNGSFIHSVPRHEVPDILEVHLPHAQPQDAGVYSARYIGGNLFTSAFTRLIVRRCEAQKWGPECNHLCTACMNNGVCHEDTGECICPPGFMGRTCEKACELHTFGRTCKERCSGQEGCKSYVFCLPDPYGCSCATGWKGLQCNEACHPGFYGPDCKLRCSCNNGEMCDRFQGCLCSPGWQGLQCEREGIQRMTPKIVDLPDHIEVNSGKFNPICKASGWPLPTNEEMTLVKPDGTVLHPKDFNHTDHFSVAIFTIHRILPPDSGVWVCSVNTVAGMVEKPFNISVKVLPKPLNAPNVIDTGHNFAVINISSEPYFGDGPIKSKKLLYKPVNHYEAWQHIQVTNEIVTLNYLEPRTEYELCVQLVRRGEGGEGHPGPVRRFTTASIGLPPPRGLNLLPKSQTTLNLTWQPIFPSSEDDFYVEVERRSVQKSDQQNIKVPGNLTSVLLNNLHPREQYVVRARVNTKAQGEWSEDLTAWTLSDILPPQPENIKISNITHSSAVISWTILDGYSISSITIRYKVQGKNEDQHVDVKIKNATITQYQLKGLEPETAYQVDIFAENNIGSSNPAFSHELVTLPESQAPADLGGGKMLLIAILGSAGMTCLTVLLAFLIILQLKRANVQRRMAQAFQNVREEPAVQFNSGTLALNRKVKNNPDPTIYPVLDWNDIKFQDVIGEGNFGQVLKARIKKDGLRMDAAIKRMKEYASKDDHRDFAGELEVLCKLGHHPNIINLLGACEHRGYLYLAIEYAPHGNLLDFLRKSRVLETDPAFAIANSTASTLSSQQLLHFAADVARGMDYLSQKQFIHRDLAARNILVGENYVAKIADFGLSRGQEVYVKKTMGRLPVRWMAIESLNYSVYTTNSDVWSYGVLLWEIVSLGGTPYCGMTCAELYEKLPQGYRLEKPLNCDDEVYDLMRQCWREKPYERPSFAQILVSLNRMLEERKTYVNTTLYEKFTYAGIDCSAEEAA

Regarding `O=[N+]([O-])c1cc(Cl)cc2nc(Nc3ccc(Sc4ccncc4)cc3)oc12` [(5-Chloro-7-nitrobenzoxazol-2-yl)-[4-(pyridin-4-ylsulfanyl)phenyl]amine], the IC50 – broadly, the concentration that inhibits the measured activity by half – in experiment [1] was 310 nM; in experiment [2], more than 1000 nM.
